Measurements reported in patent US8183211B2, “Pharmaceutical compositions for inhibiting intestinal permeability” (University of Maryland, Baltimore, priority 2000, dated 2012).
Ends that are not written are not given here.

Columns and labels:
rabbit ileum = test: Tissue resistance (Rt) of rabbit ileum mounted in Ussing chambers; assay type: cell-based
Description: Next, rabbit ileum mounted in Ussing chambers as described above, were exposed to 100 μg of FZI/0 (SEQ ID NO:15), 100 μg of FZI/1 (SEQ ID NO:29), 1.0 μg of 6×His-ZOT (obtained as described in Example 1 of U.S. patent application Ser. No. 09/127,815, filed Aug. 3, 1998), 1.0 μg of zonulini (obtained as described in Example 3 of U.S. patent application Ser. No. 09/127,815, filed Aug. 3, 1998), or 1.0 μg of zonulinh (obtained as described in Example 3of U.S. patent application Ser. No. 09/127,815, filed Aug. 3, 1998), alone; or pre-exposed for 20 min to 100 μg of FZI/0 or FZI/1, at which time 1.0 μg of 6×His-ZOT, 1.0 μg of zonulini, or 1.0 μg of zonulinh, was added. ΔRt was then calculated as described above.

BB/Wor rats = test: BB/Wor diabetic rat model, progression to diabetes; assay type: in vivo; conditions: 10 μg/ml in drinking water
Description: Both groups were maintained on a standard diet of rat chow (Harlan Teklab Diet #7012). All food and water were previously autoclaved. Each day, daily water intake was measured and 100 ml of fresh water was given. The treated group received 10 μg/ml of the zonulin peptide antagonist (SEQ ID NO:15) supplemented in the drinking water. The rats were housed in hepa-filter cages.
Diabetes in the rats was diagnosed as follows: The rats were weighed twice a week. Blood glucose was determined weekly using the OneTouch® glucose monitoring system (Johnson & Johnson). Each week, reagent strips for urinalysis were used to monitor glucose (Diastix®) and ketones (Ketositx®) (Bayer). Rats with a blood glucose>250 mg/dl were fasted overnight, and blood glucose levels>200 mg/dl were considered diabetic.
Following clinical presentation of diabetes, the rats were sacrificed as follows: the rats were anesthesized using ketamine anesthesia and a midline incision was made allowing access to the heart. An 18 G needle was placed into the heart and death occurred by exsanguinations. Then, zonulin assays were conducted as described above. […] According to Biomedical Research Models, Inc., 80% of diabetes prone rats present with diabetes by age 80 days.

rabbit ileal mucosa = conditions: cited from earlier work

Substance: FZI/1: second synthetic peptide: Gly in position 8, Val in position 12, Gln in position 13 changed to Val, Gly, Arg (VGVLGRPG; tight junction antagonist peptide) [reference compound]
- inhibitory effect on ZOT, zonulini and zonulinh action on Rt (rabbit ileum; pre-exposure for 20 min to 100 μg peptide): completely ablated

Substance: GGVLVQPG [FZI/0, synthetic octapeptide corresponding to amino acid residues 8-15 of human fetal zonulini]
- treated rats that did not develop diabetes (BB/Wor rats; endpoint age 80 days): 60%
- rats that developed diabetes by age 80 days (BB/Wor rats; n=5, control rats 80%): 40%
- change in Rt as compared to the negative control (rabbit ileum; 100 μg peptide alone, rabbit ileum): 0.5%
- decrease of the effect of ZOT on Rt (rabbit ileum; pre-treatment for 20 min with 100 μg peptide, then 1.0 μg 6×His-ZOT): 75%
- decrease of the effect of zonulinh on Rt (rabbit ileum; pre-treatment for 20 min with 100 μg peptide, then 1.0 μg zonulinh): 100%
- decrease of the effect of zonulini on Rt (rabbit ileum; pre-treatment for 20 min with 100 μg peptide, then 1.0 μg zonulini): 97%

Substance: ZOT: zonula occludens toxin elaborated by V. cholerae
- Na+-glucose coupled active transport (rabbit ileal mucosa): does not affect
- cytotoxicity (rabbit ileal mucosa): not cytotoxic
- transepithelial resistance (rabbit ileal mucosa): fails to completely abolish
